Test systems include A498 renal; M14 melanoma; OVCAR-8 ovarian; OVCAR-4 ovarian; ACHN renal; SNB-75 CNS; NCI-H460 lung; SK-MEL-2 melanoma; MDA-MB-231 breast.
Holding throughout (assay): NCI-60 cell line screen, 48 h

Structures are written as SMILES. Values joined by “and” are separate entries in the source; they are usually repeats but may differ in a detail not shown here. Identical values can stand only once.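 Compound exposure: 48 hours, 5 concentrations, 96-well plates. GI50 marks 50% less growth. TGI marks complete inhibition of growth.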

As to `COc1cc2c(c(OC)c1OC)-c1ccc(SC)c(=O)cc1[C@@H](NC(=O)c1ccc(F)cc1)CC2`, the GI50 in the assay with A498 renal, in the assay with M14 melanoma, with OVCAR-8 ovarian, with ACHN renal and in the assay on SNB-75 CNS was less than 0.01 µM in each case. The TGI with A498 renal is 0.0757 µM and < 0.01 µM; in the assay with M14 melanoma it was 2.69 µM; with OVCAR-8 ovarian, 14.6 µM; with OVCAR-4 ovarian, 91.1 µM; with ACHN renal, 91.3 µM; in the assay with SNB-75 CNS it was less than 0.01 µM.
Regarding `O=c1ncccn1C1OC(CO)C(O)C1F` (stereo not drawn), the TGI in the assay on A498 renal, with M14 melanoma, in the assay with OVCAR-8 ovarian, with NCI-H460 lung, with SK-MEL-2 melanoma and with OVCAR-4 ovarian was more than 100 µM throughout. For the same compound, the TGI in the assay on ACHN renal and with SNB-75 CNS was more than 100 µM each time. Further, the GI50 with NCI-H460 lung is more than 100 µM.
As to `BrC(Br)([P+](c1ccccc1)(c1ccccc1)c1ccccc1)[P+](c1ccccc1)(c1ccccc1)c1ccccc1`, the TGI is 48 µM in the assay with A498 renal; 48.9 µM with M14 melanoma; 26.4 µM with OVCAR-8 ovarian; more than 100 µM in the assay with NCI-H460 lung; 38.9 µM in the assay with SK-MEL-2 melanoma; 43.3 µM with OVCAR-4 ovarian. Besides, the figures for the TGI with ACHN renal and in the assay on SNB-75 CNS were 69.3 µM and 53.3 µM, respectively.
On to `O=C1Cc2ccccc2CCc2ccccc21`, for which the TGI in the assay with A498 renal, with M14 melanoma, in the assay with OVCAR-8 ovarian, in the assay with NCI-H460 lung, with SK-MEL-2 melanoma and in the assay with OVCAR-4 ovarian was more than 100 µM in each case. The TGI in the assay on ACHN renal and in the assay with SNB-75 CNS was more than 100 µM throughout.
Consider `COC(=O)C1=C(C(=O)OC)N(C(C)C)[C@H]2C(C(=O)OC)=C(C(=O)OC)N(C(C)C)[C@@H]12`, for which the TGI with A498 renal, in the assay with M14 melanoma, with OVCAR-8 ovarian, in the assay with NCI-H460 lung, in the assay with SK-MEL-2 melanoma and with OVCAR-4 ovarian was more than 100 µM each time. Also, the TGI in the assay on ACHN renal and with SNB-75 CNS was more than 100 µM each time.
As to `CCOc1ccccc1NC(=O)CCC(=O)NN`, the TGI in the assay with A498 renal, with M14 melanoma, in the assay on OVCAR-8 ovarian, with NCI-H460 lung, with SK-MEL-2 melanoma and with OVCAR-4 ovarian was more than 100 µM in each case. Further, the TGI with ACHN renal and with SNB-75 CNS was more than 100 µM throughout.
For the compound `OCCN(CCO)c1ncnc2c1sc(=S)n2-c1ccccc1`, the TGI with A498 renal, in the assay on M14 melanoma, in the assay on OVCAR-8 ovarian, with NCI-H460 lung, with SK-MEL-2 melanoma and in the assay with OVCAR-4 ovarian was more than 100 µM each time. Further, the TGI in the assay on ACHN renal and in the assay with SNB-75 CNS was more than 100 µM in each case.
Consider `CCCCOP1(=O)C=CC(Cl)=C(C)C1` (stereo not drawn), for which the TGI was more than 100 µM with M14 melanoma; 51.3 µM in the assay on OVCAR-8 ovarian; 80.8 µM in the assay on NCI-H460 lung; 50.8 µM in the assay on SK-MEL-2 melanoma; 73.7 µM in the assay with OVCAR-4 ovarian; 36.3 µM in the assay with ACHN renal. Moreover, in the assay with SNB-75 CNS, the TGI turned out to be 49.6 µM.
As for `CN1C(=O)CC2(C)c3cc(C=O)ccc3N(C)C12` (stereo not drawn), the TGI in the assay on A498 renal, with M14 melanoma, in the assay with OVCAR-8 ovarian, in the assay on NCI-H460 lung, in the assay on SK-MEL-2 melanoma and in the assay on OVCAR-4 ovarian was more than 100 µM throughout. Further, the TGI in the assay with ACHN renal and in the assay on SNB-75 CNS was more than 100 µM throughout.
For `O=C(/C(=N/Nc1cn[nH]c(=O)c1Cl)c1ccccc1)c1ccccc1`, the TGI with A498 renal was 50.4 µM; in the assay on M14 melanoma, more than 100 µM; with MDA-MB-231 breast, 87.3 µM; with OVCAR-8 ovarian it was more than 100 µM; in the assay on SK-MEL-2 melanoma, more than 100 µM; with OVCAR-4 ovarian it was more than 100 µM. Further, the values for the TGI in the assay on ACHN renal and in the assay with SNB-75 CNS were more than 100 µM and 71.6 µM, respectively.
For `CCC1(Cl)C(=O)NC(=O)N(C2CC(O)C(CO)O2)C1N=[N+]=[N-]` (stereo not drawn), the TGI with A498 renal, in the assay on M14 melanoma, in the assay on OVCAR-8 ovarian, in the assay on NCI-H460 lung, in the assay with SK-MEL-2 melanoma and in the assay on OVCAR-4 ovarian was more than 100 µM in each case. For the same compound, the TGI with ACHN renal and in the assay with SNB-75 CNS was more than 100 µM throughout.
For the compound `CC(=O)[O-].O=[N+]([O-])c1ccc([O-])c(C=NCCN=Cc2cc([N+](=O)[O-])ccc2[O-])c1.[Mn+3]`, the GI50 in the assay on A498 renal, in the assay on M14 melanoma, in the assay on OVCAR-8 ovarian, with NCI-H460 lung, in the assay with SK-MEL-2 melanoma and in the assay on OVCAR-4 ovarian was more than 100 µM throughout. Further, the GI50 in the assay with ACHN renal and in the assay with SNB-75 CNS was more than 100 µM throughout. Further, the TGI with A498 renal, with M14 melanoma, in the assay with OVCAR-8 ovarian, in the assay with NCI-H460 lung, in the assay on SK-MEL-2 melanoma and with OVCAR-4 ovarian was more than 100 µM each time. Moreover, the TGI in the assay with ACHN renal and with SNB-75 CNS was more than 100 µM throughout.
In the case of `CC1(C)Oc2ccccc2N2O[C@@H]3C(=O)N(c4ccccc4)C(=O)[C@@H]3C21c1ccccc1` (stereo partly drawn), the TGI with A498 renal was 47.3 µM; in the assay on M14 melanoma, 46.4 µM; in the assay with NCI-H460 lung it was more than 100 µM; in the assay on SK-MEL-2 melanoma, 53.3 µM; in the assay on OVCAR-4 ovarian it was 34.1 µM; in the assay on SNB-75 CNS it was 35.3 µM.
`COc1cc(-c2nn3c(=O)n(-c4ccc(Cl)cc4)c(=O)nc3s2)cc(OC)c1OC`: the GI50 in the assay with A498 renal is more than 50 µM; with M14 melanoma, 28 µM; in the assay with NCI-H460 lung, more than 50 µM; with SK-MEL-2 melanoma it was more than 50 µM; with OVCAR-4 ovarian it was 16.1 µM; in the assay on ACHN renal, more than 50 µM. The GI50 in the assay on SNB-75 CNS was 17.2 µM. Besides, the TGI in the assay on A498 renal was more than 100 µM; in the assay on M14 melanoma, 50 µM and > 100 µM; in the assay on OVCAR-8 ovarian, more than 100 µM; in the assay on NCI-H460 lung, more than 100 µM; with SK-MEL-2 melanoma it was more than 100 µM; in the assay on OVCAR-4 ovarian, 50 µM and 99.8 µM. In addition, the TGI with ACHN renal was more than 67.7 µM; in the assay with SNB-75 CNS it was 43.1 µM and 21.1 µM.
